Read-outs that look alike come from different tables or passages of the source.
What was measured:
[1] = MAD study in healthy volunteers: whole blood and plasma PK; type: in vivo, human; conditions: for Cmax / Tmax / AUC(0-t) / concentration at 14 day: human; for Tmax: median; for AUC(0-t): read-out: AUC0-24; for concentration at 14 day: read-out: Cmin
red blood cells = test: Ektacytometry (Lorrca Oxygenscan) red blood cell deformability, SCD patients; type: in vivo, human
Excerpt: An ektacytometer laser optical rotational red cell analyzer (Lorrca; RR Mechatronics, NL) was used to analyze deformability of red blood cells using a defined value of shear stress with an increasing osmotic gradient (Osmoscan) as well as a newer technology to subject these cells to gradual deoxygenation (Oxygenscan).

[2] = HV MAD Day 14, 15 mg QD maintenance, plasma
[3] = HV MAD Day 14, 15 mg QD maintenance, whole blood
[4] = HV MAD Day 14, 25 mg QD maintenance, plasma
[5] = HV MAD Day 14, 25 mg QD maintenance, whole blood
[6] = HV MAD Day 14, 50 mg QD maintenance, plasma
[7] = HV MAD Day 14, 75 mg QD maintenance, plasma
[8] = HV MAD Day 14, 75 mg QD maintenance, whole blood

For O=Cc1c(O)cccc1OC[C@@H]1COCCN1C(=O)c1cccnc1CCO [Compound I, (S)-2-hydroxy-6-((4-(2-(2-hydroxyethyl)nicotinoyl)morpholin-3-yl)methoxy)benzaldehyde], the “B:P ratio (mean AUC0-24 blood:mean AUC0-24 plasma)” value (shortened to “B:P ratio”) ([1]; HV MAD Day 14, 15 mg QD maintenance) was 182, the “B:P ratio” value ([1]; HV MAD Day 14, 25 mg QD maintenance) was 194 and the “B:P ratio” value ([1]; HV MAD Day 14, 50 mg QD maintenance) was 149. For the same compound, the “PK among cohorts with multiple ascending doses” value ([1]; HV, loading 300 mg x 3 days, maintenance 15, 25, 50 or 75 mg x 14 days (FIG. 2)) was “linear, dose-proportional PK”, the Cmax ([1]; HV MAD Day 14, 15 mg QD maintenance (loading 200 mg x 3 days), whole blood) was 130000 ng/mL and the Cmax [1, 2] was 830 ng/mL. The Tmax [1, 2] was 1 h, the AUC(0-t) [1, 2] was 15.6 µg·h/mL and the concentration at 14 day [1, 2] was 680 ng/mL. It also gave a Tmax [1, 3] of 6 h, a concentration at 14 day [1, 3] of 121000 ng/mL and a Cmax ([1]; HV MAD Day 14, 25 mg QD maintenance (loading 200 mg x 3 days), whole blood) of 141000 ng/mL. The Cmax [1, 4] was 900 ng/mL, the Tmax [1, 4] was 1.5 h and the AUC(0-t) [1, 4] was 15.9 µg·h/mL. For the same compound, the concentration at 14 day [1, 4] was 660 ng/mL, the Tmax [1, 5] was 2 h and the AUC(0-t) [1, 5] was 3090 µg·h/mL. It also gave a Cmax ([1]; HV MAD Day 14, 50 mg QD maintenance (loading 500/400/400 mg), whole blood) of 236000 ng/mL, a Cmax [1, 6] of 1990 ng/mL and a Tmax [1, 6] of 1 h. It also gave an AUC(0-t) [1, 6] of 34.5 µg·h/mL, a concentration at 14 day [1, 6] of 1450 ng/mL and a concentration at 14 day ([1]; HV MAD Day 14, 50 mg QD maintenance, whole blood) of 210000 ng/mL. The Cmax [1, 7] was 2740 ng/mL, the Tmax [1, 7] was 1 h and the AUC(0-t) [1, 7] was 48.6 µg·h/mL. The concentration at 14 day [1, 7] was 2220 ng/mL, the Tmax [1, 8] was 3 h and the AUC(0-t) [1, 8] was 6760 µg·h/mL. For the same compound, the “red blood cell health (Oxygenscan)” value (red blood cells; MAD-3 cohort SCD patients, 6 weeks (FIG. 13)) was “Improvement in red blood cell health” and the “red blood cell health by Oxygenscan testing” value (red blood cells; SCD patients, MAD-1 and MAD-2 (FIG. 9)) was “Improvements in red blood cell health were seen in all patients”.

From patent US20250041312A1, “METHODS OF ADMINISTERING A MODULATOR OF HEMOGLOBIN” (Global Blood Therapeutics, Inc., priority 2021, published 2025)
